Source: patent publication US20250289878A1, “SURFACE-MODIFIED EXOSOMES AND METHODS OF USE” (The Board of Regents of the University of Oklahoma, priority 2021, published 2025)

Legend:
B16F10 tumor = assay: B16F10 murine tumor model, therapeutic efficacy; type: in vivo, mice; conditions: IV every three days, DOX 5 mg/kg (ASL 2.5 mg/kg), vs untreated control
Experimental: B16F10 cells (1×10^6) were directly injected into the flank of 6 weeks old mice. The mice were randomly grouped by six in each and observed until the cancer volume reached ˜50 mm^3. […] The tumor volume was calculated based on the formula: (width^2×length)/2. On day 18, the mice were sacrificed, and organs were harvested for histological analysis. H&E and TUNEL staining were performed using the paraffin-embedded tissues.

[1] = test system: cleaved caspase-3 and cleaved PARP of B16F10 cells; assay: Apoptotic activity: cleaved caspase-3 and cleaved PARP by ELISA and western blot; type: cell-based, murine; conditions: DOX 5 μM, 24 hours
Experimental: B16F10 cells were seeded in a 100 mm cell culture dish with cell density at 4.4×10^6 and incubated for 24 hours. After the treatment of various agents with a fixed concentration of DOX (5 μM) for 24 hours, proteins were collected using a cell lysis buffer on ice. Proteins were separated by electrophoresis and transferred to PVDF membranes. Cleaved caspase-3, cleaved PARP, and β-actin (Cell Signaling Technology, Danvers, MA, USA) were used as primary antibodies, and IRDye secondary antibodies (LI-COR Biosciences, Lincoln, NE, USA) were used as secondary antibodies. The protein bands were imaged using the Odyssey CLx (LI-COR Biosciences, Lincoln, NE, USA). The apoptotic activities of dAEx were evaluated by measuring the level of cleaved caspase-3, and cleaved PARP in the protein samples with a cleaved PARP (Cell Signaling Technology, Danvers, MA, USA) and a cleaved caspase-3 (R&D systems, Minneapolis, MN, USA) ELISA kit according to manufacturer's protocol.

B16F10 cells = assay: CCK-8 cell viability / cytotoxicity test; type: cell-based, murine; conditions: Mus musculus, B16-F10, DOX concentration, 24 hours, read-out: half-maximal inhibitory concentration (IC50)
Experimental: Cells (B16F10 and RAW 264.7 cell line) were grown in DMEM containing 10% FBS at 37° C. with 5% CO2. B16F10 and RAW 264.7 cells were seeded on the 96 well tissue culture plates (1×10^4 per well) and cultured for 24 hours. To confirm the biosafety of ASL and AEx, the cells were treated with various concentrations of ASL and AEx and incubated for 24 hours. For the cytotoxicity test, B16F10 cells were given the various concentrations of dAEx, dEx, DOX. In addition to the further competition test, B16F10 cells were incubated with the cyclic RGD (2 μM) for 2 hours and treated with the various concentrations of dAEx. After 24 hours of the treatment, to investigate the cell survival, cells were washed using the fresh PBS twice, and 10% CCK-8 containing DMEM was added to each well and incubated for 1 hour. The absorbance was measured using a microplate reader at 450 nm.

## COc1cccc2c1C(=O)c1c(O)c3c(c(O)c1C2=O)C[C@@](O)(C(=O)CO)C[C@@H]3O[C@H]1C[C@H](N)[C@H](O)[C@H](C)O1 [DOX, Doxorubicin]
B16F10 tumor
  tumor growth (tumor volume): did not significantly inhibit tumor growth
[1]
  expression of cleaved caspase-3 and cleaved PARP: slight activation
B16F10 cells
  IC50: 9.85 ± 1.06 µM
